According to US20090143410A1, “Isoxazolines for Controlling Invertebrate Pests” (priority 2005, published 2009):

Tested on: potato leafhopper (Empoasca fabae Harris)
Assay: Test D: control of potato leafhopper on bean plant, contact and/or systemic
Assay type: in vivo
Details: sprayed at 50 ppm, 18 to 21 day old adults on Longio bean plant, 6 days, 19-21° C., 50-70% relative humidity, read-out: pest control: mortality
Method: Test compounds were formulated using a solution containing 10% acetone, 90% water and 300 ppm X-77™ Spreader Lo-Foam Formula non-ionic surfactant containing alkylarylpolyoxyethylene, free fatty acids, glycols and isopropanol (Loveland Industries, Inc. Greeley, Colo., USA). The formulated compounds were applied in 1 mL of liquid through a SUJ2 atomizer nozzle with ⅛ JJ custom body (Spraying Systems Co. Wheaton, Ill., USA) positioned 1.27 cm (0.5 inches) above the top of each test unit. All experimental compounds in these tests were sprayed at 250 ppm replicated three times. After spraying of the formulated test compound, each test unit was allowed to dry for 1 h and then a black, screened cap was placed on top. The test units were held for 6 days in a growth chamber at 25° C. and 70% relative humidity. Plant feeding damage was then visually assessed based on foliage consumed.
For evaluating control of potato leafhopper (Empoasca fabae Harris) through contact and/or systemic means, the test unit consisted of a small open container with a 5-6-day old Longio bean plant (primary leaves emerged) inside. White sand was added to the top of the soil and one of the primary leaves was excised prior to application. […] Each test unit was then visually assessed for insect mortality.

SMILES | mortality at 50 ppm
O=C(NCc1ccccn1)c1cnc(C2=NOC(c3cc(Cl)cc(Cl)c3)(C(F)(F)F)C2)nc1C(F)(F)F (centres unmarked) [Compound 7, 2-[5-(3,5-dichlorophenyl)-4,5-dihydro-5-(trifluoromethyl)-3-isoxazolyl]-N-(2-pyridinylmethyl)-4-(trifluoromethyl)-5-pyrimidinecarboxamide] | ≥ 80%
O=C(NCC(F)(F)F)c1cnc(C2=NOC(c3cc(Cl)cc(Cl)c3)(C(F)(F)F)C2)nc1C(F)(F)F (centres unmarked) [Compound 10, 2-[5-(3,5-dichlorophenyl)-4,5-dihydro-5-(trifluoromethyl)-3-isoxazolyl]-N-(2,2,2-trifluoroethyl)-4-(trifluoromethyl)-5-pyrimidinecarboxamide] | ≥ 80%
